Measured values taken from patent publication US20080009418A1, “Selective Inhibitors” (Alchemia LTD., priority 2004, published 2008).

Tests used:
Human δ-opioid (DOP) = molecular target: T1, Human δ-opioid (DOP) (Homo sapiens, UniProt P41143); assay: Radioligand binding, human δ-opioid (DOP) membranes, FlashPlate, [3H]-Bremazocine; details: compound at 10 μM, [3H]-Bremazocine; for A1: inhibition of radioligand binding: human DOP membranes
T1 construct: purchased Perkin Elmer Biosignal
Procedure, shortened: (§1)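 Cloned human receptor membranes were coated onto FlashPlate wells and incubated with radioligand and compound (added from a 0.5 mM DMSO daughter plate) for 1 hour at room temperature in the dark. Scintillation counting gave percent inhibition, with DMSO defining total and reference ligand defining non-specific binding.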

Human κ-Opioid (KOP) = molecular target: T2, Human κ-Opioid (KOP) (Homo sapiens, UniProt P41145); assay: Radioligand binding, human κ-opioid (KOP) membranes, filtration, [3H]-Diprenorphine; details: compound at 10 μM, [3H]-Diprenorphine; for A2: inhibition of radioligand binding: human KOP membranes
T2 construct: purchased Perkin Elmer Biosignal
Procedure, shortened: (§2)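 Membranes from cloned human receptors were incubated with compound and radioligand for 1 hour at room temperature. Bound ligand was collected on 0.3% PEI-soaked filters, washed with cold 50 mM Tris-HCl pH 7.4, and counted by scintillation. Percent inhibition was computed against DMSO totals and reference-ligand nonspecific wells.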

Human Melanocortin (MC3) = molecular target: T3, Human Melanocortin (MC3) (Homo sapiens, UniProt P41968); assay: Radioligand binding, human melanocortin MC3 membranes, FlashPlate, [125I]-NDP-αMSH; details: compound at 10 μM, [125I]-NDP-αMSH; for A3: inhibition of radioligand binding: human MC3 membranes
T3 construct: purchased Perkin Elmer Biosignal
Procedure, shortened: as §1

Human Melanocortin (MC4) = molecular target: T4, Human Melanocortin (MC4) (Homo sapiens, UniProt P32245); assay: Radioligand binding, human melanocortin MC4 membranes, FlashPlate, [125I]-NDP-αMSH; details: compound at 10 μM, [125I]-NDP-αMSH; for A4: inhibition of radioligand binding: human MC4 membranes
T4 construct: purchased Perkin Elmer Biosignal
Procedure, shortened: as §1

Human melanocortin (MC5) = molecular target: T5, Human melanocortin (MC5) (Homo sapiens, UniProt P33032); assay: Radioligand binding, human melanocortin MC5 membranes, FlashPlate, [125I]-NDP-αMSH; details: compound at 10 μM, [125I]-NDP-αMSH; for A5: inhibition of radioligand binding: human MC5 membranes
T5 construct: purchased Perkin Elmer Biosignal
Procedure, shortened: as §1

[1] = molecular target: T6, Human melanin-concentrating hormone (MCH1) (Homo sapiens, UniProt Q99705); assay: Radioligand binding, human melanin-concentrating hormone MCH1 membranes, FlashPlate, [125I]-S36057; details: compound at 10 μM; for A6: inhibition of radioligand binding, human melanin-concentrating hormone (MCH1): [125I]-S36057; for A6: inhibition of radioligand binding: [125I]-S36057, human MCH1 membranes
T6 construct: purchased Perkin Elmer Biosignal
Procedure, shortened: as §1

Human μ-opioid (MOP) = molecular target: T7, Human μ-opioid (MOP) (Homo sapiens, UniProt P35372); assay: Radioligand binding, human μ-opioid (MOP) membranes, FlashPlate, [3H]-Naloxone; details: compound at 10 μM, [3H]-Naloxone; for A7: inhibition of radioligand binding: human MOP membranes
T7 construct: purchased Perkin Elmer Biosignal
Procedure, shortened: as §1

Human neurokinin (NK1) = molecular target: T8, Human neurokinin (NK1) (Homo sapiens, UniProt P25103); assay: Radioligand binding, human neurokinin NK1 membranes, filtration, [125I]-Substance P; details: compound at 10 μM, [125I]-Substance P; for A8: inhibition of radioligand binding: human NK1 membranes
T8 construct: purchased Perkin Elmer Biosignal
Procedure, shortened: as §2

[2] = molecular target: T9, Human neuropeptide Y (NPY-Y1) (Homo sapiens, UniProt P25929); assay: Radioligand binding, human neuropeptide Y NPY-Y1 membranes, FlashPlate, [125I]-PYY; details: compound at 10 μM, [125I]-PYY; for A9: inhibition of radioligand binding: human NPY-Y1 membranes
T9 construct: purchased Perkin Elmer Biosignal
T9 sequence (P25929 1-384): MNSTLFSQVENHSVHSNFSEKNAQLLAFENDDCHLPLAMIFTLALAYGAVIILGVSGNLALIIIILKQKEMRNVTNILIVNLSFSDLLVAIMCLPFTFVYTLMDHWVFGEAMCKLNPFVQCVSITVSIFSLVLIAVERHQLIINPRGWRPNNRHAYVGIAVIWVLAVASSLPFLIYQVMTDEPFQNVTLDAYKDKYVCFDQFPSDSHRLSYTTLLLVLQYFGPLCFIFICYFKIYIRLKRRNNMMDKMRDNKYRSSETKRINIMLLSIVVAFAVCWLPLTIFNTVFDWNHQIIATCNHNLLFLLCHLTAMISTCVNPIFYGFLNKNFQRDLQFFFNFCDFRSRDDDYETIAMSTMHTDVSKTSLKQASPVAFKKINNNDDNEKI
Procedure, shortened: as §1

Human opioid (ORL1) = molecular target: T10, Human opioid (ORL1) (Homo sapiens, UniProt P41146); assay: Radioligand binding, human opioid ORL1 membranes, FlashPlate, [125I]-Nociceptin; details: compound at 10 μM, [125I]-Nociceptin; for A10: inhibition of radioligand binding: human ORL1 membranes
T10 construct: purchased Perkin Elmer Biosignal
Procedure, shortened: as §1

Mouse urotensin (mUR2) = molecular target: T11, Mouse urotensin (mUR2) (Mus musculus, UniProt Q8VIH9); assay: Radioligand binding, mouse urotensin mUR2 membranes, FlashPlate, [125I]-Urotensin II; details: compound at 10 μM, [125I]-Urotensin II; for A11: inhibition of radioligand binding: mouse mUR2 membranes
T11 construct: purchased Perkin Elmer Biosignal
T11 sequence (Q8VIH9 1-385): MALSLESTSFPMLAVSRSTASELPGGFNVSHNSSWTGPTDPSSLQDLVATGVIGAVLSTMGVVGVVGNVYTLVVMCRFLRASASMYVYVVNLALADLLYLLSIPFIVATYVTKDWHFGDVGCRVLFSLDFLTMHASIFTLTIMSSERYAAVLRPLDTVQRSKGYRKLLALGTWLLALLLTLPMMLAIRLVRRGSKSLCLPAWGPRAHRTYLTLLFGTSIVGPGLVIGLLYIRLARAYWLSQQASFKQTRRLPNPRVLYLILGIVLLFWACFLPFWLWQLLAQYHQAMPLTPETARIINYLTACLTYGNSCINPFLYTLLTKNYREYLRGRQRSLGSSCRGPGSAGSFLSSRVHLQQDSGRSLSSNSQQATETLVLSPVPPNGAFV
Procedure, shortened: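 Cloned mouse urotensin (mUR2) receptor membranes from Perkin Elmer Biosignal were immobilized in FlashPlate microplates using a proprietary coating. Each well got 19.5 μl buffer, then 0.5 μl of DMSO, reference ligand, or compound. Adding 5 μl of [125I]-Urotensin II, diluted to 5× final concentration in binding buffer, started binding. Plates were sealed with TopSeal-A and incubated 1 hour at room temperature in the dark. Wells were counted for 30 seconds each on a TopCount after a 60-second delay, and percentage inhibition was calculated.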

T7 sequence (P35372 whole entry): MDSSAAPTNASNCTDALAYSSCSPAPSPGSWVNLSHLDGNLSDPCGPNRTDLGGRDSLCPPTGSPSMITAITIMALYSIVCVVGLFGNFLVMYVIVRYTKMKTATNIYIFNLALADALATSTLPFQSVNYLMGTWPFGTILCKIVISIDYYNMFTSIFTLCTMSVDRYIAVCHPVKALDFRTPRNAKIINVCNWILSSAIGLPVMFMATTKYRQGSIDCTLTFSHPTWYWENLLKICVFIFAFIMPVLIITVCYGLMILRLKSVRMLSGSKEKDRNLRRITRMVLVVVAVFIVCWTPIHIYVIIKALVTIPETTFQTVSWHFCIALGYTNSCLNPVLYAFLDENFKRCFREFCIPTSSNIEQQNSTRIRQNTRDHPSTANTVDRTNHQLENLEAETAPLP
T10 sequence (P41146 whole entry): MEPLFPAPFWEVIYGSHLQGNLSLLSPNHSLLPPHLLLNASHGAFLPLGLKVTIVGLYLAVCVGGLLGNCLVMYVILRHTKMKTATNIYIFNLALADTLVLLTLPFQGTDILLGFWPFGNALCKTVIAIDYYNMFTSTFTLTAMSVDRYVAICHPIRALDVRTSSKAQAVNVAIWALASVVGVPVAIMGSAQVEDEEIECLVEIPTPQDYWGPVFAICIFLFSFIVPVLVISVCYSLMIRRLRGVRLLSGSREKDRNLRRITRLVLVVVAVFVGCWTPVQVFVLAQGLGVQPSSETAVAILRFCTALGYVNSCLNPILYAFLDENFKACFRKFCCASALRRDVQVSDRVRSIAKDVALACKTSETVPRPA
T1 sequence (P41143 whole entry): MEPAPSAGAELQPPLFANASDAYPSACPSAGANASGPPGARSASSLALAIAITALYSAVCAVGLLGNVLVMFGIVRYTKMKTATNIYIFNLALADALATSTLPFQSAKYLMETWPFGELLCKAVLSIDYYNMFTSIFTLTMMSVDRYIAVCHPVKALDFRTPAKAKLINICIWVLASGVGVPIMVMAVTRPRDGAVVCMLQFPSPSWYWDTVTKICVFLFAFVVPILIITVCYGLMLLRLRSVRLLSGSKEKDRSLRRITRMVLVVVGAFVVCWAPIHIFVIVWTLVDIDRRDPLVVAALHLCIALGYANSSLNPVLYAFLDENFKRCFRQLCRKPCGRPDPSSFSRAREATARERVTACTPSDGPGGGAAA
T6 sequence (Q99705 whole entry): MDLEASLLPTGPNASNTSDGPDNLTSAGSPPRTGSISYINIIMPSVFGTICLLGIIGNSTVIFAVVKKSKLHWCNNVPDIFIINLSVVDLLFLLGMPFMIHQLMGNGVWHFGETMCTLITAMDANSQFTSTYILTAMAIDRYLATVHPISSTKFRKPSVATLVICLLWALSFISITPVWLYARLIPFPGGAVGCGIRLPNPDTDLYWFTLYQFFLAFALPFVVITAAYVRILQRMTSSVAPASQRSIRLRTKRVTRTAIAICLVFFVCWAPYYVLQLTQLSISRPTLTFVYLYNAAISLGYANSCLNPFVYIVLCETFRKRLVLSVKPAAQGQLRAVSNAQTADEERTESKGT
T3 sequence (P41968 whole entry): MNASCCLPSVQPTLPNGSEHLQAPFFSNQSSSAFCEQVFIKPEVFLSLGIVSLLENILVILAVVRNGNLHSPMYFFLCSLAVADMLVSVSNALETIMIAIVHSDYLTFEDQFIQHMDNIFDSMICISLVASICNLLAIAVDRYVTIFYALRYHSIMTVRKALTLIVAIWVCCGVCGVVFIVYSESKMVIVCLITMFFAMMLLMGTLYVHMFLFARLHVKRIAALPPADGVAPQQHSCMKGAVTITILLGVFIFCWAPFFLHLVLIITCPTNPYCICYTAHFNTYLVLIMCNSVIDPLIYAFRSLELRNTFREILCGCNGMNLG
T4 sequence (P32245 whole entry): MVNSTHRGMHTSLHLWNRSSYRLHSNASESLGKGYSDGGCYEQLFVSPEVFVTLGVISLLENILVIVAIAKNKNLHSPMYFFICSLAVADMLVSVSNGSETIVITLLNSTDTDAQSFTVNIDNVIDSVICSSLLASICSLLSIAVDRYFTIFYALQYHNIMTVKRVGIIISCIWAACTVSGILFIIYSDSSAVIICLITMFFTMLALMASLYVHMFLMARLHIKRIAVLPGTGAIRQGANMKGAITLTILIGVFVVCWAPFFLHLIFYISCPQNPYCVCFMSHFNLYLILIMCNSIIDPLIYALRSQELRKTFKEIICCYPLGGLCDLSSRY
T5 sequence (P33032 whole entry): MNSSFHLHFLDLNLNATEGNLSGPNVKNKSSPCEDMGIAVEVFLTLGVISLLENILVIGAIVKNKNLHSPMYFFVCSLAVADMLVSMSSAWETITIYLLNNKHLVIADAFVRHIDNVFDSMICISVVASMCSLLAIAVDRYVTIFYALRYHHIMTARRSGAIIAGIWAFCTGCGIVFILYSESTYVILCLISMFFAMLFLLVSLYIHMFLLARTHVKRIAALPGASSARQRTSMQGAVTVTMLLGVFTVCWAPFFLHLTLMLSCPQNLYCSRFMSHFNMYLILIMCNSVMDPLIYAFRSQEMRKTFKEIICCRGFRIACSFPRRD
T2 sequence (P41145 whole entry): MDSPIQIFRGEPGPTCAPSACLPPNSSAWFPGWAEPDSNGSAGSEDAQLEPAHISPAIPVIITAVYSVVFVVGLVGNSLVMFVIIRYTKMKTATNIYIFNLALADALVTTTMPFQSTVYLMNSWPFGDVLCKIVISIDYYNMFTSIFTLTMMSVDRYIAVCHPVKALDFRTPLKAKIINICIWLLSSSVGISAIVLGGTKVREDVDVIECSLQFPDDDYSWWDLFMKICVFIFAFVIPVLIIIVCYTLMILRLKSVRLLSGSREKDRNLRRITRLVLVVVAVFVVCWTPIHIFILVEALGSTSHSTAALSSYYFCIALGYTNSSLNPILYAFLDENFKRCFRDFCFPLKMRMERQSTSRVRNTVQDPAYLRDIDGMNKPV
T8 sequence (P25103 whole entry): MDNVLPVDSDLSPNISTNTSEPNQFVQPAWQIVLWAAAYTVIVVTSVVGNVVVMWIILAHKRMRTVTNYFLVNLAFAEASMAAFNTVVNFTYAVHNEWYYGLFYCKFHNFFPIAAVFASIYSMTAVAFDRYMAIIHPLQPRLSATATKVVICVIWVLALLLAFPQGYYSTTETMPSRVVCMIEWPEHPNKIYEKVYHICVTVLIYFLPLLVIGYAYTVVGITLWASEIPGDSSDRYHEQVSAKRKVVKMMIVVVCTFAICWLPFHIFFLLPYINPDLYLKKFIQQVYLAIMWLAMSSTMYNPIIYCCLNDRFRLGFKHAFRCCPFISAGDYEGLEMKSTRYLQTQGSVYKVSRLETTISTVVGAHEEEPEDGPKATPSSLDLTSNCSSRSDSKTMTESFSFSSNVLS

Row | Structure (SMILES) | A1: inhibition of radioligand binding, human δ-opioid (DOP) (Human δ-opioid (DOP)) | A2: inhibition of radioligand binding, human κ-opioid (KOP) (Human κ-Opioid (KOP)) | A3: inhibition of radioligand binding, human melanocortin (MC3) (Human Melanocortin (MC3)) | A4: inhibition of radioligand binding, human melanocortin (MC4) (Human Melanocortin (MC4)) | A5: inhibition of radioligand binding, human melanocortin (MC5) (Human melanocortin (MC5)) | A6: inhibition of radioligand binding, human melanin-concentrating hormone (MCH1) [1] | A7: inhibition of radioligand binding, human μ-opioid (MOP) (Human μ-opioid (MOP)) | A8: inhibition of radioligand binding, human neurokinin (NK1) (Human neurokinin (NK1)) | A9: inhibition of radioligand binding, human neuropeptide Y (NPY-Y1) [2] | A1: inhibition of radioligand binding (Human δ-opioid (DOP)) | A2: inhibition of radioligand binding (Human κ-Opioid (KOP)) | A3: inhibition of radioligand binding (Human Melanocortin (MC3)) | A4: inhibition of radioligand binding (Human Melanocortin (MC4)) | A5: inhibition of radioligand binding (Human melanocortin (MC5)) | A6: inhibition of radioligand binding [1] | A7: inhibition of radioligand binding (Human μ-opioid (MOP)) | A8: inhibition of radioligand binding (Human neurokinin (NK1)) | A9: inhibition of radioligand binding [2] | A10: inhibition of radioligand binding (Human opioid (ORL1)) | A11: inhibition of radioligand binding (Mouse urotensin (mUR2)) | further results
1 | NCCCC(=O)NC1C(OCc2ccccc2)OC(COCc2ccc3ccccc3c2)C(O)C1OCc1ccccc1 (stereo not shown) [compound 378] | − (“−” indicates less than 50% inhibition at 10 μM) | − (“−” indicates less than 50% inhibition at 10 μM) | − (“−” indicates less than 50% inhibition at 10 μM) | + (“+” indicates greater than 50% inhibition at 10 μM) | + (“+” indicates greater than 50% inhibition at 10 μM) | − (“−” indicates less than 50% inhibition at 10 μM) | − (“−” indicates less than 50% inhibition at 10 μM) | + (“+” indicates greater than 50% inhibition at 10 μM) | − (“−” indicates less than 50% inhibition at 10 μM) |  |  |  |  |  |  |  |  |  |  |  | A10: inhibition of radioligand binding, human opioid (ORL1) (Human opioid (ORL1)): − (“−” indicates less than 50% inhibition at 10 μM); A11: inhibition of radioligand binding, mouse urotensin (mUR2) (Mouse urotensin (mUR2)): − (“−” indicates less than 50% inhibition at 10 μM)
2 | NCCCC(=O)NC1C(OCc2ccccc2)OC(COCc2ccccc2)C(O)C1OCc1ccccc1 (stereo not shown) [compound 379] | − (“−” indicates less than 50% inhibition at 10 μM) | − (“−” indicates less than 50% inhibition at 10 μM) | − (“−” indicates less than 50% inhibition at 10 μM) | − (“−” indicates less than 50% inhibition at 10 μM) | + (“+” indicates greater than 50% inhibition at 10 μM) | − (“−” indicates less than 50% inhibition at 10 μM) | − (“−” indicates less than 50% inhibition at 10 μM) | + (“+” indicates greater than 50% inhibition at 10 μM) | − (“−” indicates less than 50% inhibition at 10 μM) |  |  |  |  |  |  |  |  |  |  |  | A10: inhibition of radioligand binding, human opioid (ORL1) (Human opioid (ORL1)): − (“−” indicates less than 50% inhibition at 10 μM); A11: inhibition of radioligand binding, mouse urotensin (mUR2) (Mouse urotensin (mUR2)): − (“−” indicates less than 50% inhibition at 10 μM)
3 | NCCCC(=O)NC1C(OCc2ccccc2)OC(COCc2ccc(Cl)cc2)C(O)C1OCc1ccccc1 (stereo not shown) [compound 380] |  |  |  |  |  |  |  |  |  | − (“−” indicates less than 50% inhibition at 10 μM) | − (“−” indicates less than 50% inhibition at 10 μM) | − (“−” indicates less than 50% inhibition at 10 μM) | + (“+” indicates greater than 50% inhibition at 10 μM) | − (“−” indicates less than 50% inhibition at 10 μM) | − (“−” indicates less than 50% inhibition at 10 μM) | − (“−” indicates less than 50% inhibition at 10 μM) | + (“+” indicates greater than 50% inhibition at 10 μM) | − (“−” indicates less than 50% inhibition at 10 μM) | − (“−” indicates less than 50% inhibition at 10 μM) | − (“−” indicates less than 50% inhibition at 10 μM) | 
4 | NCCC(=O)NC1C(OCc2ccc3ccccc3c2)OC(COCc2ccc3ccccc3c2)C(O)C1OCc1ccc(Cl)cc1 (stereo not shown) [compound 381] |  |  |  |  |  |  |  |  |  | − (“−” indicates less than 50% inhibition at 10 μM) | − (“−” indicates less than 50% inhibition at 10 μM) | + (“+” indicates greater than 50% inhibition at 10 μM) | + (“+” indicates greater than 50% inhibition at 10 μM) | + (“+” indicates greater than 50% inhibition at 10 μM) | − (“−” indicates less than 50% inhibition at 10 μM) | − (“−” indicates less than 50% inhibition at 10 μM) | + (“+” indicates greater than 50% inhibition at 10 μM) | − (“−” indicates less than 50% inhibition at 10 μM) | − (“−” indicates less than 50% inhibition at 10 μM) | − (“−” indicates less than 50% inhibition at 10 μM) | 
5 | NCCC(=O)NC1C(OCc2ccc3ccccc3c2)OC(COCc2ccccc2)C(O)C1OCc1ccc(Cl)cc1 (stereo not shown) [compound 382] |  |  |  |  |  |  |  |  |  | − (“−” indicates less than 50% inhibition at 10 μM) | − (“−” indicates less than 50% inhibition at 10 μM) | − (“−” indicates less than 50% inhibition at 10 μM) | + (“+” indicates greater than 50% inhibition at 10 μM) | + (“+” indicates greater than 50% inhibition at 10 μM) | − (“−” indicates less than 50% inhibition at 10 μM) | − (“−” indicates less than 50% inhibition at 10 μM) | + (“+” indicates greater than 50% inhibition at 10 μM) | − (“−” indicates less than 50% inhibition at 10 μM) | − (“−” indicates less than 50% inhibition at 10 μM) | − (“−” indicates less than 50% inhibition at 10 μM) | 
